# Data reported in ChEMBL document CHEMBL5620351, “Advancing beyond reverse transcriptase inhibitors: The new era of hepatitis B polymerase inhibitors” (Eur J Med Chem, 2023).
# Columns and labels:
# Hepatitis B virus [1] = assay: Antiviral activity against HBV infected in human HepG2 2.2.15 cells assessed as reduction on HBsAg level incubated for 5 days; type: functional; set-up: concentration or dose not given beside the values; conditions: time 5 day
# Hepatitis B virus [2] = assay: Antiviral activity against HBV infected in human HepDES19 cells assessed as inhibition of HBV replication by qPCR analysis; type: functional, organism-based
# [3] = Cytotoxicity against human LX2 cells assessed as reduction in cell viability incubated for 1 hr by MTS assay; type: toxicity, cell-based; conditions: LX-2 cells
# Hepatitis B virus [4] = assay: Antiviral activity against HBV infected in human HepDES19 cells assessed as inhibition of extracellular HBV DNA by qPCR analysis; type: functional, organism-based
# [5] = Cytotoxicity against human HEK293 cells assessed as reduction in cell viability incubated for 1 hr by MTS assay; type: toxicity, cell-based
# [6] = Cytotoxicity against human HepDES19 cells assessed as reduction in cell viability incubated for 1 hr by MTS assay; type: functional
# Hepatitis B virus [7] = assay: Antiviral activity against HBV infected in human HepDES19 cells assessed as reduction in HBV replication; type: functional, organism-based
# Huh-7 [8] = assay: Cytotoxicity against human Huh-7 cells assessed as reduction in cell viability by Neutral Red staining based assay; type: functional
# Hepatitis B virus [9] = assay: Antiviral activity against lamivudine resistant HBV infected in human HepG2 cells assessed as reduction in of intracellular HBV DNA incubated for 5 days by Southern blotting analysis; type: functional, organism-based; conditions: HepG2, 120 h
# Hepatitis B virus [10] = assay: Antiviral activity against adefovir-resistant HBV infected in human HepG2 cells assessed as reduction in of intracellular HBV DNA incubated for 5 days by Southern blotting analysis; type: functional, organism-based; conditions: HepG2, 120 h
# Huh-7 [11] = assay: Cytotoxicity against human Huh-7 cells assessed as reduction in cell viability by LDH release assay; type: functional
# Hepatitis B virus [12] = assay: Antiviral activity against HBV infected in human HePAD38 cells assessed as reduction in of intracellular HBV DNA incubated for 5 days by Southern blotting analysis; type: functional, organism-based; conditions: HePAD38, 120 h
# Hepatitis B virus [13] = assay: Antiviral activity against HBV infected in human HepG2-NTCP12 cells assessed as inhibition of extracellular HBV DNA incubated for 2 weeks by SYBR green dye based quantitative PCR analysis; type: functional, organism-based; conditions: HepG2-NTCP12, 336 h
# [14] = Cytotoxicity against human primary hepatocytes assessed as cell viability incubated for 72 hrs by MTS assay; type: toxicity, cell-based, Hepatocyte
# [15] = Cytotoxicity against human primary hepatocytes assessed as cell viability incubated for 72 hrs by LDH release assay; type: toxicity, cell-based, Hepatocyte
# Hepatitis B virus [16] = assay: Antiviral activity against HBV transfected in human HB611 cells; type: functional, organism-based
# [17] = Inhibition of HBV RNA polymerase; set-up: species or system Hepatitis B virus
# Hepatitis B virus [18] = assay: Antiviral activity against HBV transfected in human HB611 cells assessed as reduction of HBV DNA replication incubated for 5 days by q-PCR analysis; type: functional, organism-based; conditions: HB611, 120 h
# [19] = Cytotoxicity against human HB611 cells assessed as reduction in cell viability incubated for 6 to 9 days by celltiter-glo assay; type: functional; conditions: time 6-9 day
# Hepatitis B virus [20] = assay: Antiviral activity against HBV infected in human HepG2 2.2.15 cells assessed as reduction in intracellular DNA level; type: functional, organism-based
# Hepatitis B virus [21] = assay: Antiviral activity against HBV infected in human HepG2 2.2.15 cells assessed as reduction in extracellular DNA level; type: functional, organism-based
# HepG2 2.2.15 = assay: Cytotoxicity against human HepG2 2.2.15 cells assessed as cell viability incubated for 12 days by WST-1 assay; type: functional; conditions: HepG2 2.2.15, 288 h, time 12 day
# HepG2 [22] = assay: Cytotoxicity against human HepG2 cells assessed as cell viability incubated for 12 days by WST-1 assay; type: functional; conditions: HepG2, 288 h, time 12 day
# HepG2 [23] = assay: Cytotoxicity against human HepG2 cells assessed as reduction in cell viability in presence of lamivudine by MTS assay; type: functional
# HepG2 [24] = assay: Cytotoxicity against human HepG2 cells assessed as reduction in cell viability by MTS assay; type: functional
smiles,measurement,setting,value
CCCCCCCCCCCC1=C(O)C(=O)C=C(O)C1=O [EMBELIN],Activity,Hepatitis B virus [1],62%
CCN(CC)C(=O)C1C(=O)N(O)C(=O)c2ccccc21 (stereo not given),EC50,Hepatitis B virus [2],0.69 µM
O=C(Nc1ccc(F)cc1)C1C(=O)N(O)C(=O)c2ccccc21 (stereo not given),EC50,Hepatitis B virus [2],0.69 µM
O=C1OCc2cc(O)c(=O)c(O)cc21,CC50 at 1 h,[3],> 100 µM
same,EC50,Hepatitis B virus [4],0.6 µM
same,CC50 at 1 h,[5],> 100 µM
same,CC50,[6],> 100 µM
C/C(=N\c1ccccc1N)c1c(C)cc(=O)n(O)c1O,EC50,Hepatitis B virus [7],0.11 µM
same,EC50,Hepatitis B virus [2],0.69 µM
O=c1ccc2cc3ccoc3cc2o1 [PSORALEN],Activity,Hepatitis B virus [1],62%
Nc1nc(O)c2ncn([C@H]3CC[C@@H](CO)O3)c2n1,CC50,Huh-7 [8],26 µM
same,EC50,Hepatitis B virus [9],0.89 µM
same,EC50,Hepatitis B virus [10],0.66 µM
same,CC50,Huh-7 [11],97 µM
same,EC50,Hepatitis B virus [12],0.3 µM
COC(=O)c1c(CCl)cc(O)c(=O)c(O)c1C(=O)OC,CC50 at 1 h,[3],> 100 µM
same,EC50,Hepatitis B virus [4],0.4 µM
same,CC50 at 1 h,[5],> 100 µM
same,CC50,[6],> 80 µM
Cc1c(O)c2cc(Br)cnc2n(O)c1=O,EC50,Hepatitis B virus [13],0.049 µM
same,CC50 at 72 h,[14],> 100 µM
same,CC50 at 72 h,[15],> 100 µM
CC(=NOc1ccc(F)cc1)c1c(C)cc(=O)n(O)c1O,EC50,Hepatitis B virus [7],0.11 µM
CCCCCCCC/C=C\CCCCCCCC(=O)NCCc1ccc(O)c(O)c1 [OLEOYL DOPAMINE],EC50,Hepatitis B virus [16],0.13 µM
same,IC50,[17],0.41 µM
same,IC50,Hepatitis B virus [18],0.1 µM
same,CC50,[19],0.9 µM
COc1ccc(CON=C(C)c2c(C)cc(=O)n(O)c2O)cc1,EC50,Hepatitis B virus [7],0.11 µM
COc1ccc(CNC(=O)C2C(=O)N(O)C(=O)c3cc([N+](=O)[O-])ccc32)cc1 (stereo not given),EC50,Hepatitis B virus [2],0.69 µM
C=CCNc1nc(N)c(/C(N)=N\C#N)s1,EC50,Hepatitis B virus [20],0.74 µM
same,EC50,Hepatitis B virus [21],0.48 µM
same,CC50,HepG2 2.2.15,7.2 µM
O=C(/C=C/c1ccc(O)c(O)c1)OCCc1ccc(O)c(O)c1,CC50,HepG2 [22],229 µM
CC(=O)O[C@H]1C(=O)[C@@]2(C)[C@H]([C@H](OC(=O)c3ccccc3)[C@]3(O)C[C@H](O)C(C)=C1C3(C)C)[C@]1(OC(C)=O)CO[C@@H]1C[C@@H]2O [BACCATIN III],Activity,Hepatitis B virus [1],62%
Cc1ccc(CNC(=O)C2C(=O)N(O)C(=O)c3cc(NC(=O)c4ccccc4)ccc32)cc1 (stereo not given),EC50,Hepatitis B virus [2],0.69 µM
O=C(Nc1ccccc1)C1C(=O)N(O)C(=O)c2ccccc21 (stereo not given),EC50,Hepatitis B virus [2],0.69 µM
CC(=NOCc1ccc(C)cc1)c1c(C)cc(=O)n(O)c1O,EC50,Hepatitis B virus [7],0.11 µM
CC(C)c1ccc(O)c(=O)c(O)c1 [BETA-THUJAPLICINOL],CC50,HepG2 [23],48 µM
same,CC50,HepG2 [24],47 µM
COc1ccc(CNC(=O)C2C(=O)N(O)C(=O)c3ccccc32)cc1 (stereo not given),EC50,Hepatitis B virus [2],0.69 µM
CC(=O)c1cc(O)c(=O)c(O)cc1C,EC50,Hepatitis B virus [13],0.049 µM
same,CC50 at 72 h,[14],> 100 µM
same,CC50 at 72 h,[15],> 100 µM
O=C(/C=C/c1ccc(O)c(O)c1)NCCc1ccc(O)c(O)c1,CC50,HepG2 [22],229 µM
O=C(/C=C/c1ccc(O)c(O)c1/C=C/c1ccc(O)c(O)c1)O[C@H](Cc1ccc(O)c(O)c1)C(=O)O [SALVIANOLIC ACID A],CC50,HepG2 [22],86 µM
O=c1c(O)c(-c2ccc(O)c(O)c2)oc2cc(O)cc(O)c12 [QUERCETIN],Activity,Hepatitis B virus [1],62%
CC(=NOCc1ccccc1F)c1c(C)cc(=O)n(O)c1O,EC50,Hepatitis B virus [7],0.11 µM
C/C(=N\OCc1ccc(F)cc1)c1c(C)cc(=O)n(O)c1O,EC50,Hepatitis B virus [13],0.049 µM
same,CC50 at 72 h,[14],> 100 µM
same,CC50 at 72 h,[15],> 100 µM
